From publication PMC7026418, “The kinase polypharmacology landscape of clinical PARP inhibitors” (Scientific Reports, 2020)
Where two headings read alike, the source gives them in different places. One block for each compound: values may come before it.

What was measured:
Experiment in all cases: biochemical
Parameters in all cases: DiscoveRx KINOMEscan active site-directed competition binding; percent of control kinase bound to immobilised ligand
HIPK2 = HIPK2 (Homo sapiens, UniProt Q9H2X6)
TAOK3 = biological target: T1, TAOK3 (Homo sapiens, UniProt Q9H2K8)
T1 sequence (Q9H2K8 1-898): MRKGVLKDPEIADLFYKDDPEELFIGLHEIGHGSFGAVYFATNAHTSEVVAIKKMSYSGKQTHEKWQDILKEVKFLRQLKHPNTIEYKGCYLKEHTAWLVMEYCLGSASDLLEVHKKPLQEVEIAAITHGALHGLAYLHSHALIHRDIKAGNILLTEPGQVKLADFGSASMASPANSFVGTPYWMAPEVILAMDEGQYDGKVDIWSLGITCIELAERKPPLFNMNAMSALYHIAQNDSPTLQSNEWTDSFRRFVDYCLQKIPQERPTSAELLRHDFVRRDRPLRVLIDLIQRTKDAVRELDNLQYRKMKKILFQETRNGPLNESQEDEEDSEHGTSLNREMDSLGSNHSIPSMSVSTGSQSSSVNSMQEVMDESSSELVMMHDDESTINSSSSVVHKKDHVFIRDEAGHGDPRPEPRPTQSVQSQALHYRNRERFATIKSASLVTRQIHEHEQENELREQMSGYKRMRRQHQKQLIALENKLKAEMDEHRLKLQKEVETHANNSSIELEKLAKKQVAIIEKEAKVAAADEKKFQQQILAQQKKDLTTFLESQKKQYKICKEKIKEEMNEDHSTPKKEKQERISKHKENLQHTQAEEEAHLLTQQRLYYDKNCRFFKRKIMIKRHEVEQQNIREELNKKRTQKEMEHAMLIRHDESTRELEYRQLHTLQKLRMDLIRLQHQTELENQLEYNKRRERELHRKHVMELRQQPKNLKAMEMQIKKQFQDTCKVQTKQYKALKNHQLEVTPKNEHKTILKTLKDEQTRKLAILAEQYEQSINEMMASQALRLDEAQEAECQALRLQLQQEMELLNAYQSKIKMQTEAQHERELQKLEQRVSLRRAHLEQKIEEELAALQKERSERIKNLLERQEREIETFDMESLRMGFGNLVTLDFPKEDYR

DLK = biological target: T2, DLK (Homo sapiens, UniProt Q12852)
T2 construct: gene MAP3K12
T2 sequence (Q12852 1-859): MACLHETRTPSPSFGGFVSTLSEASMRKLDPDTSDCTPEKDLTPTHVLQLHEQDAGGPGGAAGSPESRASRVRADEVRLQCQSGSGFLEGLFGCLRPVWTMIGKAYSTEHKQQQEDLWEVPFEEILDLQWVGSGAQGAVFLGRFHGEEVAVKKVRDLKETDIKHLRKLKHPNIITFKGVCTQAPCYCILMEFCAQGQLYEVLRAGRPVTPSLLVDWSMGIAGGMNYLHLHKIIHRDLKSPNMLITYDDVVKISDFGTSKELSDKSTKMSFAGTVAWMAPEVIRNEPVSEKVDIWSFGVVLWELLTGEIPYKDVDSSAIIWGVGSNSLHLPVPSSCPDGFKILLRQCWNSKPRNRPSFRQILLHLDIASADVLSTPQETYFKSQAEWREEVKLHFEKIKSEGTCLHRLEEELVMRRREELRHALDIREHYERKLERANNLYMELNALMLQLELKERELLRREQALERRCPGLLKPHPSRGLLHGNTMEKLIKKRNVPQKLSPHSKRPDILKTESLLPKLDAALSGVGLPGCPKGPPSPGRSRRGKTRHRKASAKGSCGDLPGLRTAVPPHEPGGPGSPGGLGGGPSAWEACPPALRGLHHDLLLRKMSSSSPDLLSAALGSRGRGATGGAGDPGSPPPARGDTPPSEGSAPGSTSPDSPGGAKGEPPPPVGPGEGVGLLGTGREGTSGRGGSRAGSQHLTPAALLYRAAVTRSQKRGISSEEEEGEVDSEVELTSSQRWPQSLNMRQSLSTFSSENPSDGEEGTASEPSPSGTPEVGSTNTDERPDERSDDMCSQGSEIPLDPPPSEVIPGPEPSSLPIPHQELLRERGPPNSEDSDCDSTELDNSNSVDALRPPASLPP

JNK3 = biological target: T3, JNK3 (Homo sapiens, UniProt P53779)
T3 construct: gene MAPK10

SGK2 = biological target: T4, SGK2 (Homo sapiens, UniProt Q9HBY8)
T4 sequence (Q9HBY8 1-367): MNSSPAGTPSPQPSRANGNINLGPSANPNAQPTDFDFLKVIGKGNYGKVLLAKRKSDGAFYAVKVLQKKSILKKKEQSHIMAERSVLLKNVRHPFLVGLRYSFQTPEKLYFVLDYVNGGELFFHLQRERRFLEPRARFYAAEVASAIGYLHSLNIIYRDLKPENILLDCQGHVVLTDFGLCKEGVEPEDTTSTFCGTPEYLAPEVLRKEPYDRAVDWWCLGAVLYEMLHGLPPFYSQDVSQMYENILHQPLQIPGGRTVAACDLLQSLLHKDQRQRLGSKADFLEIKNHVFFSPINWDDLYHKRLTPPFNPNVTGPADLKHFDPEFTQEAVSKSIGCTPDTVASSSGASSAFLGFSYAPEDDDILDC

[1] = read-out: Niraparib (MK-4827) / %Ctrl @ 10000nM
[2] = read-out: Olaparib / %Ctrl @ 10000nM
[3] = read-out: Rucaparib / %Ctrl @ 10000nM, binding competition, % of control
[4] = read-out: Talazoparib (BMN 673) / %Ctrl @ 10000nM

T3 sequence (P53779 whole entry): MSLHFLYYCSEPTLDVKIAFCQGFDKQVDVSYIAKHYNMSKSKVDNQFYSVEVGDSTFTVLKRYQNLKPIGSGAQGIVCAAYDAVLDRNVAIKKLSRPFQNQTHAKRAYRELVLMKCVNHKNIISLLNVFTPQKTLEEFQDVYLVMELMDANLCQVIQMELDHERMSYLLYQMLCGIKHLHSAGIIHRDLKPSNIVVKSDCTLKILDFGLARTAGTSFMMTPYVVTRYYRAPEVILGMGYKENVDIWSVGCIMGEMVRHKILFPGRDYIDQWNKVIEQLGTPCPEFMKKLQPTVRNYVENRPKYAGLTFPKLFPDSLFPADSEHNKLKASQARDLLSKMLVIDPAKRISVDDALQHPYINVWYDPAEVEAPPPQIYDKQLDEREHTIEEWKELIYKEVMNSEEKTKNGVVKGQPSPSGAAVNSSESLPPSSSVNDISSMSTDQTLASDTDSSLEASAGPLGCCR
Chain of HIPK2 (Q9H2X6 whole entry): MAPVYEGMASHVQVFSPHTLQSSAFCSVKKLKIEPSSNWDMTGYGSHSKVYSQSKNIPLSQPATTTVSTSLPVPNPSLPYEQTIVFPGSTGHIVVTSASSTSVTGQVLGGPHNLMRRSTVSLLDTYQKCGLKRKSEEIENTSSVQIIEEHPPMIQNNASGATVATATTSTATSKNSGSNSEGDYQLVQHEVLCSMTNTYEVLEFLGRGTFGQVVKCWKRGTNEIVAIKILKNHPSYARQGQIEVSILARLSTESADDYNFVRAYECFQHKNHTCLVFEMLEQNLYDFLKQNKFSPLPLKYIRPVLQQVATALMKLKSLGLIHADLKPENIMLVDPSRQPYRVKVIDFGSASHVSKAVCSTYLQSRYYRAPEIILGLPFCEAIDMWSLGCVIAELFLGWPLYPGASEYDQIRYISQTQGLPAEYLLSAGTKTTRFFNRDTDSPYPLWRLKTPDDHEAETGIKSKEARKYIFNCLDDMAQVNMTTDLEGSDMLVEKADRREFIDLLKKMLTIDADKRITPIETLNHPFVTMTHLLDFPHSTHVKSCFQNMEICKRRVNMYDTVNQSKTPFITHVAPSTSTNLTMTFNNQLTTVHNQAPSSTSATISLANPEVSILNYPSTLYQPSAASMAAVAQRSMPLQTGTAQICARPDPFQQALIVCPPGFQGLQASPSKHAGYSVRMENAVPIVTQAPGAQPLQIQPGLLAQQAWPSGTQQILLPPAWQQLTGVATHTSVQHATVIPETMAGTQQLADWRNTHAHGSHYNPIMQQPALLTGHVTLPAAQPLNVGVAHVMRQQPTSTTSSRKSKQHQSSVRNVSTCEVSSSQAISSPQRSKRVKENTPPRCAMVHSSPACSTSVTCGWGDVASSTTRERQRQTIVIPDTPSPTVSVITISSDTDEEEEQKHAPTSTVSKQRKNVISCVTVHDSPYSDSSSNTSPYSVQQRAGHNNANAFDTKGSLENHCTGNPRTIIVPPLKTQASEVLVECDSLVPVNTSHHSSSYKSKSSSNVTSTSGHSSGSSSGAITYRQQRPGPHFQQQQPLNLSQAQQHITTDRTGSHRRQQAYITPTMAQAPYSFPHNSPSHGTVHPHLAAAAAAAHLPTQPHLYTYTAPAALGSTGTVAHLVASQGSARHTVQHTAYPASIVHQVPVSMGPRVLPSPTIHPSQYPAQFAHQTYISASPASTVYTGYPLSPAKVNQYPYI

SMILES: NC(=O)c1cccc2cn(-c3ccc([C@@H]4CCCNC4)cc3)nc12 [Niraparib]
- percent of control binding at 10 µM (HIPK2; [1]): 1.1%
- percent of control binding at 10 µM (TAOK3; [1]): 100%
- percent of control binding at 10 µM (DLK; [1]): 100%
- percent of control binding at 10 µM (JNK3; [1]): 88%
- percent of control binding at 10 µM (SGK2; [1]): 96%

- percent of control binding at 10 µM (HIPK2; [2]): 95%
- percent of control binding at 10 µM (TAOK3; [2]): 94%
- percent of control binding at 10 µM (DLK; [2]): 96%
- percent of control binding at 10 µM (JNK3; [2]): 86%
- percent of control binding at 10 µM (SGK2; [2]): 99%
SMILES: O=C(c1cc(Cc2n[nH]c(=O)c3ccccc23)ccc1F)N1CCN(C(=O)C2CC2)CC1 [Olaparib]

- percent of control binding at 10 µM (HIPK2; [3]): 5.1%
- percent of control binding at 10 µM (TAOK3; [3]): 91%
- percent of control binding at 10 µM (DLK; [3]): 91%
- percent of control binding at 10 µM (JNK3; [3]): 71%
- percent of control binding at 10 µM (SGK2; [3]): 78%
SMILES: CNCc1ccc(-c2[nH]c3cc(F)cc4c3c2CCNC4=O)cc1 [Rucaparib]

- percent of control binding at 10 µM (HIPK2; [4]): 99%
- percent of control binding at 10 µM (TAOK3; [4]): 100%
- percent of control binding at 10 µM (DLK; [4]): 100%
- percent of control binding at 10 µM (JNK3; [4]): 91%
- percent of control binding at 10 µM (SGK2; [4]): 89%
SMILES: Cn1ncnc1[C@H]1c2n[nH]c(=O)c3cc(F)cc(c23)N[C@@H]1c1ccc(F)cc1 [Talazoparib]
